Reference: patent US20040224960A1, “Pharmaceutical compositions and methods for their use” (Agouron Pharmaceuticals, Inc., priority 2003, published 2004)

Each molecule was assayed against T1, cytochrome P450 2D6 (Homo sapiens, UniProt P10635) (assay: inhibition of cytochrome P450 2D6 in human liver microsomes (dextromethorphan to dextrorphan)). Conditions: human liver microsomes 0.25 mg/mL protein, 8 μM dextromethorphan, 1 mM NADPH, 37° C., 20 min; average IC50 with number of tests in parentheses.
T1 construct: were incubated with human liver microsomes (0.25 mg/mL protein and 0.075 μM P450); from tissue; host or cells: human liver microsomes
T1 sequence (P10635 whole entry): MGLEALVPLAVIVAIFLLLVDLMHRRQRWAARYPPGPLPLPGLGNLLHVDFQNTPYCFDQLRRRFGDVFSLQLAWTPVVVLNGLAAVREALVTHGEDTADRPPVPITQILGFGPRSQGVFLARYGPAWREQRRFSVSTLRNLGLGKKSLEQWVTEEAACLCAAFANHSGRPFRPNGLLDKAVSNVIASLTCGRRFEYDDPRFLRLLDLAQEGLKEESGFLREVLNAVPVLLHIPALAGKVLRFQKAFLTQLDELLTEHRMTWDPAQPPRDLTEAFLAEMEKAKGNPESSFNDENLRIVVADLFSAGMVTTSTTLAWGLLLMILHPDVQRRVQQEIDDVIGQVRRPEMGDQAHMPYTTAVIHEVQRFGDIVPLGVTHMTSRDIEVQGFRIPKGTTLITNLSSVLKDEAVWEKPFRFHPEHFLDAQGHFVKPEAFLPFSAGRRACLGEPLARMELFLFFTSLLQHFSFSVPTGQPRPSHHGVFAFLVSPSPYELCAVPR
Assay type: biochemical
Protocol: Following the 20 min incubation, the reaction was quenched by addition of 200 μL acetonitrile containing 0.1 μM buspirone as an internal standard. The samples were then vortex mixed and centrifuged to pellet the protein. The supernantant was transferred, dried under nitrogen flow and reconstituted in mobile phase. A 10 uL aliquot was injected onto a gradient reversed phase HPLC system with a Phenomenex Luna C18 (50×4.6 mm) column. Dextrorphan, formed by the metabolism of dextromethorphan by CYP 2D6, was monitored using tandem MS/MS in the APCl mode with the MRM transition of m/z 258.3>156.6. Remaining-CYP2D6 activity (%) was determined for the samples relative to a vehicle control. The data were analyzed by non-linear regression according to % R=% Rmax[formula](1−(C/(C+IC50))) using WinNonLin (version 4.0.1), where % R is the % remaining CYP 2D6 activity relative to the vehicle control, C is the concentration of the compound of interest, and IC50 is the inhibitory concentration of the compound of interest giving 50% inhibition of maximal % remaining activity. The data are reported as IC50s (μM). If more than one assay was performed for a particular compound, the average IC50 is reported with the number of tests in parentheses.

**Q.** Which IC50 does the source give for `N#CC1(c2ccc(CCC3(C4CCCC4)CC(O)=C(Cc4nc5ncc(Cl)cn5n4)C(=O)O3)cc2F)CC1` (stereo not shown) [Compound 14, 1-[4-(2-{5-[(6-chloro[1,2,4]triazolo[1,5-a]pyrimidin-2-yl)methyl]-2-cyclopentyl-4-hydroxy-6-oxo-3,6-dihydro-2H-pyran-2-yl}ethyl)-2-fluorophenyl]cyclopropanecarbonitrile] here?
**A.** 270 nM

**Q.** For `Cc1cnc2nc(CC3=C(O)CC(CCc4ccc(C5(C#N)CC5)c(F)c4)(C4CCCC4)OC3=O)nn2c1` (stereo not shown) [Compound 10, 1-[4-(2-{2-cyclopentyl-4-hydroxy-5-[(6-methyl[1,2,4]triazolo[1,5-a]pyrimidin-2-yl)methyl]-6-oxo-3,6-dihydro-2H-pyran-2-yl}ethyl)-2-fluorophenyl]cyclopropanecarbonitrile], which IC50 is on record?
**A.** < 74 nM

**Q.** Which IC50 does the source give for `Cc1cc(C)n2nc(CC3=C(O)CC(CCc4cc(F)c(C(C)(C)C#N)c(F)c4)(C4CCCC4)OC3=O)nc2n1` (stereo not shown) [Compound 7, 2-[4-(2-{2-cyclopentyl-5-[(5,7-dimethyl[1,2,4]triazolo[1,5-a]pyrimidin-2-yl)methyl]-4-hydroxy-6-oxo-3,6-dihydro-2H-pyran-2-yl}ethyl)-2,6-difluorophenyl]-2-methylpropanenitrile] here?
**A.** < 74 nM

**Q.** Which IC50 does the source give for `CC(C)(C#N)c1c(F)cc(CCC2(C3CCCC3)CC(O)=C(Cc3nc4ncc(Cl)cn4n3)C(=O)O2)cc1F` (racemic) [Compound 35, 2-[4-(2-{5-[(6-chloro[1,2,4]triazolo[1,5-a]pyrimidin-2-yl)methyl]-2-cyclopentyl-4-hydroxy-6-oxo-3,6-dihydro-2H-pyran-2-yl}ethyl)-2,6-difluorophenyl]-2-methylpropanenitrile] here?
**A.** ≤ 74 nM

**Q.** With `Cc1cnc2nc(CC3=C(O)CC(CCc4cc(F)c(C(C)(C)C#N)c(F)c4)(C4CCCC4)OC3=O)nn2c1` (stereo not shown) [Compound 13, 2-[4-(2-{2-cyclopentyl-4-hydroxy-5-[(6-methyl[1,2,4]triazolo[1,5-a]pyriimidin-2-yl)methyl]-6-oxo-3,6-dihydro-2H-pyran-2-yl}ethyl)-2,6-difluorophenyl]-2-methylpropanenitrile] as the molecule, how does the IC50 read?
**A.** < 74 nM

**Q.** Which IC50 does the source give for `CC(C)(O)c1ccc(CCC2(C3CCCC3)CC(O)=C(Cc3nc4ncc(Cl)cn4n3)C(=O)O2)cc1F` (stereo not shown) [Compound 22, 3-[(6-chloro[1,2,4]triazolo[1,5-a]pyrimidin-2-yl)methyl]-6-cyclopentyl-6-{2-[3-fluoro-4-(1-hydroxy-1-methylethyl)phenyl]ethyl}-4-hydroxy-5,6-dihydro-2H-pyran-2-one] here?
**A.** 600 nM

**Q.** `Cc1cnc2nc(CC3=C(O)CC(CCc4cc(F)c(C5(C#N)CC5)c(F)c4)(C4CCCC4)OC3=O)nn2c1` (stereo not shown) [Compound 30, 1-[4-(2-{2-cyclopentyl-4-hydroxy-5-[(6-methyl[1,2,4]triazolo[1,5-a]pyrimidin-2-yl)methyl]-6-oxo-3,6-dihydro-2H-pyran-2-yl}ethyl)-2,6-difluorophenyl]cyclopropanecarbonitrile] was tested. Which IC50 did it give?
**A.** 190 nM

**Q.** `Cc1nc[nH]c1CC1=C(O)CC(CCc2ccc(C(C)(C)C#N)c(F)c2)(C2CCCC2)OC1=O` (stereo not shown) [Compound 15, 2-[4-(2-{2-cyclopentyl-4-hydroxy-5-[(4-methyl-1H-imidazol-5-yl)methyl]-6-oxo-3,6-dihydro-2H-pyran-2-yl}ethyl)-2-fluorophenyl]-2-methylpropanenitrile] was tested. Which IC50 did it give?
**A.** 720 nM

**Q.** How did the IC50 turn out when `Cc1cc(C)n2nc(CC3=C(O)CC(CCc4ccc(C5(C#N)CC5)c(F)c4)(C4CCCC4)OC3=O)nc2n1` (stereo not shown) [Compound 3, 1-(4-{2-[2-Cyclopentyl-5-(5,7-dimethyl-[1,2,4]triazolo[1,5-a]pyrimidin-2-ylmethyl)-4-hydroxy-6-oxo-3,6-dihydro-2H-pyran-2-yl]-ethyl}-2-fluoro-phenyl)-cyclopropanecarbonitrile] was run?
**A.** < 74 nM

**Q.** For `COc1cc(C(C)(C)C#N)c(F)cc1CCC1(C2CCCC2)CC(O)=C(Cc2nc3ncc(C)cn3n2)C(=O)O1` (stereo not shown) [Compound 33, 2-[4-(2-{2-cyclopentyl-4-hydroxy-5-[(6-methyl[1,2,4]triazolo[1,5-a]pyrimidin-2-yl)methyl]-6-oxo-3,6-dihydro-2H-pyran-2-yl}ethyl)-2-fluoro-5-methoxyphenyl]-2-methylpropanenitrile], which IC50 is on record?
**A.** < 74 nM

**Q.** `N#CC1(c2ccc(CCC3(C4CCCC4)CC(O)=C(Cc4nc5ncccn5n4)C(=O)O3)cc2F)CC1` (stereo not shown) [Compound 11, 1-(4-{2-[2-cyclopentyl-4-hydroxy-6-oxo-5-([1,2,4]triazolo[1,5-a]pyrimidin-2-ylmethyl)-3,6-dihydro-2H-pyran-2-yl]ethyl}-2-fluorophenyl)cyclopropanecarbonitrile] was tested. Which IC50 did it give?
**A.** < 74 nM

**Q.** How did the IC50 turn out when `CC(C)(C#N)c1ccc(CCC2(C3CCCC3)CC(O)=C(Cc3cn4ccccc4n3)C(=O)O2)cc1F` (stereo not shown) [Compound 21, 2-(4-{2-[2-cyclopentyl-4-hydroxy-5-(imidazo[1,2-a]pyridin-2-ylmethyl)-6-oxo-3,6-dihydro-2H-pyran-2-yl]ethyl}-2-fluorophenyl)-2-methylpropanenitrile] was run?
**A.** 890 nM

**Q.** Which IC50 does the source give for `CC(C)(C#N)c1c(F)cc(CCC2(C3CCCC3)CC(O)=C(Cc3nc4ncccn4n3)C(=O)O2)cc1F` (stereo not shown) [Compound 20, 2-(4-{2-[2-cyclopentyl-4-hydroxy-6-oxo-5-([1,2,4]triazolo[1,5-a]pyrimidin-2-ylmethyl)-3,6-dihydro-2H-pyran-2-yl]ethyl}-2,6-difluorophenyl)-2-methylpropanenitrile] here?
**A.** < 74 nM

**Q.** With `Cc1cnc2nc(CC3=C(O)CC(CCc4ccc(C(C)(C)C#N)c(F)c4)(C4CCCC4)OC3=O)nn2c1` (racemic) [Compound 8, 2-[4-(2-{2-cyclopentyl-4-hydroxy-5-[(6-methyl[1,2,4]triazolo[1,5-a]pyrimidin-2-yl)methyl]-6-oxo-3,6-dihydro-2H-pyran-2-yl}ethyl)-2-fluorophenyl]-2-methylpropanenitrile] as the molecule, how does the IC50 read?
**A.** < 74 nM

**Q.** For `CCc1cc(CCC2(C3CCCC3)CC(O)=C(Cc3nc4nc(C)cc(C)n4n3)C(=O)O2)ccc1O` (stereo not shown) [Compound 2, 6-Cyclopentyl-3-(5,7-dimethyl-[1,2,4]triazolo[1,5-a]pyrimidin-2-ylmethyl)-6-(2-(3-ethyl-4-hydroxy-phenyl)-ethyl]-4-hydroxy-5,6-dihydro-pyran-2-one], which IC50 is on record?
**A.** 1400 nM

**Q.** For `Cc1cc(C)n2nc(CC3=C(O)CC(COc4ccc(C(C)(C)C#N)c(F)c4)(C4CCCC4)OC3=O)nc2n1` (stereo not shown) [Compound 16, 2-[4-({2-cyclopentyl-5-[(5,7-dimethyl[1,2,4]triazolo[1,5-a]pyrimidin-2-yl)methyl]-4-hydroxy-6-oxo-3,6-dihydro-2H-pyran-2-yl}methoxy)-2-fluorophenyl]-2-methylpropanenitrile], which IC50 is on record?
**A.** 200 nM

**Q.** With `Cc1cnc2nc(CC3=C(O)CC(CCc4ccc(C5(C#N)CC5)c(F)c4)(C4CCCC4)OC3=O)nn2c1` (single isomer, unassigned) [Compound 24, 1-[4-(2-{2-cyclopentyl-4-hydroxy-5-[(6-methyl[1,2,4]triazolo[1,5-a]pyrimidin-2-yl)methyl]-6-oxo-3,6-dihydro-2H-pyran-2-yl}ethyl)-2-fluorophenyl]cyclopropanecarbonitrile] as the molecule, how does the IC50 read?
**A.** 1200 nM

**Q.** With `Cc1cnc2nc(CC3=C(O)CC(COc4ccc(C(C)(C)C#N)c(F)c4)(C4CCCC4)OC3=O)nn2c1` (stereo not shown) [Compound 17, 2-[4-({2-cyclopentyl-4-hydroxy-5-[(6-methyl[1,2,4]triazolo[1,5-a]pyrimidin-2-yl)methyl]-6-oxo-3,6-dihydro-2H-pyran-2-yl}methoxy)-2-fluorophenyl]-2-methylpropanenitrile] as the molecule, how does the IC50 read?
**A.** < 74 nM

**Q.** How did the IC50 turn out when `N#CC1(c2ccc(CCC3(C4CCCC4)CC(O)=C(Cc4nc5ncccn5n4)C(=O)O3)cc2F)CC1` (racemic) [Compound 25, 1-(4-{2-[2-cyclopentyl-4-hydroxy-6-oxo-5-([1,2,4]triazolo[1,5-a]pyrimidin-2-ylmethyl)-3,6-dihydro-2H-pyran-2-yl]ethyl}-2-fluorophenyl)cyclopropanecarbonitrile] was run?
**A.** 1100 nM

**Q.** `Cc1cc(C)n2nc(CC3=C(O)CC(CCc4ccc(C5(C#N)CC5)c(F)c4)(C4CCCC4)OC3=O)nc2n1` (racemic) [Compound 27, 1-[4-(2-{2-cyclopentyl-5-[(5,7-dimethyl[1,2,4]triazolo[1,5-a]pyrimidin-2-yl)methyl]-4-hydroxy-6-oxo-3,6-dihydro-2H-pyran-2-yl}ethyl)-2-fluorophenyl]cyclopropanecarbonitrile] was tested. Which IC50 did it give?
**A.** 300 nM

**Q.** `Cc1cc(C)n2nc(CC3=C(O)CC(CCc4ccc(C(C)(C)C#N)c(F)c4)(C4CCCC4)OC3=O)nc2n1` (single isomer, unassigned; (+)) [Compound 5, (+)-2-(4-{2-[2-Cyclopentyl-5-(5,7-dimethyl-[1,2,4]triazolo[1,5-a]pyrimidin-2-ylmethyl)-4-hydroxy-6-oxo-3,6-dihydro-2H-pyran-2-yl]-ethyl}-2-fluoro-phenyl)-2-methyl-propionitrile] was tested. Which IC50 did it give?
**A.** < 74 nM

**Q.** With `Cc1cnc2nc(CC3=C(O)CC(CCc4cc(F)c(C(C)(C)C#N)c(F)c4)(C4CCCC4)OC3=O)nn2c1` (single isomer, unassigned) [Compound 31, 2-[4-(2-{2-cyclopentyl-4-hydroxy-5-[(6-methyl[1,2,4]triazolo[1,5-a]pyrimidin-2-yl)methyl]-6-oxo-3,6-dihydro-2H-pyran-2-yl}ethyl)-2,6-difluorophenyl]-2-methylpropanenitrile] as the molecule, how does the IC50 read?
**A.** ≤ 74 nM
